Measurements as given in patent publication US4122078A, “Antigens and antibodies of catecholamines” (priority 1975, dated 1978).

Tests used:
[1] = test system: epinephrine antibodies (γ-globulin fraction obtained in Example 2); test: Equilibrium dialysis method, specificity of the epinephrine antibodies; design: species or system rabbit; settings: binding of 3H-DL-epinephrine (10μl of 3.4×10^-5 M) with 10μl of 3.4×10^-3 M compound; antibody 5.5 × 10^-6 M; 25° C; 100 = no compound
Description: The γ-globulin fraction obtained in Example 2 was dialyzed against the phosphate buffered saline and a solution of the final concentration of 0.94mg/ml was performed prepared. The γ-globulin solution was used as the antibody solution in this method. To the phosphate buffered saline used in this procedure, 0.01% of sodium metabisufite(Na2 S2 O5) and 0.015% ethylenediaminetetraacetic acid disodium salt were added.
An equilibrium dialysis apparatus of 2ml capacity was used and 500μl of the antibody solution was poured into one of a pair cell(cell A) and into another cell(cell B), 10μl of the phosphate buffered saline solution of DL-epinephrine labelled with tritium(^3 H) in a concentration of 3.4×10^-5 M and 490μl of phosphate buffered saline were introduced. They were shaked at 25° C to reach equilibrium and then radioactivity of each solution were counted. The difference of each counts was calculated and made as the standard.
Then, 500μl of γ-globulin solution was put in cell A, and in cell B were introduced 10μl of a solution of the concentration of 3.4×10^-3 M of epinephrine or one of other catecholamine or analogue compounds, 10μl of a phosphate buffered saline solution of ^3 H-epinephrine (3.4×10^-5 M) and 480μl of phosphate buffered saline. The solutions were shaked by the same manner as above and after equilibrium, the radioactivity of each solution were counted. The difference was calculated and the relative bindings were calculated from the standard.

[2] = test system: antiserum to L-dopa-BSA; test: Ouchterlony method, specificity of antiserum to L-dopa-BSA; type: binding, rabbit; design: key: the degree of the precipitate formation were indicated by the signs of +++, ++,+-, and -, in turn; the degree of the precipitate formation were indicated by the signs of +++, ++,+-, and -, in turn; the degree of the precipitate formation were indicated by the signs of +++, ++,+-, and -, in turn; the degree of the precipitate formation were indicated by the signs of +++, ++,+-, and -, in turn; settings: antigen 1mg/ml; antiserum after removal of antibodies to carrier material
Description: The phosphate buffered saline solution of the conjugate was mixed with an equal volume of complete Freund's adjuvant to prepare a w/o type emulsion. The emulsion was intradermally injected to rabbit foot pads in the amount of 2-3mg of the antigen. After four weeks, phosphate buffered saline solution of the conjugate (1mg) was injected into the marginal vein of the rabbit ear. (This operation can be replaced by injecting subcutaneously the w/o emulsion of phosphate buffered saline solution of the conjugate (1mg) and incomplete Freund's adjuvant). One week after the booster injection, the rabbit were bled and the antisera were obtained.
Agar was dissolved in phosphate buffered saline with warming to yield a final concentration of 1.2% and the solution was spread 2 mm in thickness on a glass plate. After cooling, 7 holes of 2mm diameter were made on the center and corners of a true hexagon with 5 mm side. In the center hole, the antiserum obtained above or diluted thereof to 1/2-1/3 with the phosphate buffered saline was filled. […] Therefore, an equal volume of BSA solution (1mg/ml) was added to the antiserum and the mixture was allowed to stand at 37° C for 1 hour, then at 4° C overnight. […] The resulting solution was passed through a DEAE-cellulose column and the first fraction (gamma globulin fraction,γG-fraction) was collected with examining the absorbance at 280nm. […]

[3] = test system: antiserum to norepinephrine; test: Ouchterlony method, specificity of antiserum to norepinephrine; type: binding, rabbit; design: key: the degree of the precipitate formation were indicated by the signs of +++, ++,+-, and -, in turn; the degree of the precipitate formation were indicated by the signs of +++, ++,+-, and -, in turn; the degree of the precipitate formation were indicated by the signs of +++, ++,+-, and -, in turn; the degree of the precipitate formation were indicated by the signs of +++, ++,+-, and -, in turn; settings: antigen 1mg/ml; antiserum after removal of antibodies to carrier material
Description: (§1) Agar was dissolved in phosphate buffered saline with warming to yield a final concentration of 1.2% and the solution was spread 2 mm in thickness on a glass plate. After cooling, 7 holes of 2mm diameter were made on the center and corners of a true hexagon with 5 mm side. In the center hole, the antiserum obtained above or diluted thereof to 1/2-1/3 with the phosphate buffered saline was filled. In the corner holes, the phosphate buffered saline solution of the conjugate (0.5-1.0mg/ml) and BSA were filled alternately. […] Therefore, an equal volume of BSA solution (1mg/ml) was added to the antiserum and the mixture was allowed to stand at 37° C for 1 hour, then at 4° C overnight. The resulted precipitates were removed by centrifuging. […] This antiserum was then dialyzed with 6M urea solution for 15 hours followed with phosphate buffer (0.007M NaH2 PO4,pH 6.3) for 2 days. The resulting solution was passed through a DEAE-cellulose column and the first fraction (gamma globulin fraction,γG-fraction) was collected with examining the absorbance at 280nm. […] The γG-fraction was dialyzed with water and lyophilized for the stock.
By the same manner as in Example 1, the antiserum of norepinephrine was produced and after removing the BSA-antibody, the γ-globuline fraction was obtained.
(§2) The specificity of antisera to the antigens was examined by the Ouchterlony method. […]

[4] = test system: antiserum to dopamine-BSA; test: Ouchterlony method, specificity of antiserum to dopamine-BSA; type: binding, rabbit; design: key: the degree of the precipitate formation were indicated by the signs of +++, ++,+-, and -, in turn; the degree of the precipitate formation were indicated by the signs of +++, ++,+-, and -, in turn; the degree of the precipitate formation were indicated by the signs of +++, ++,+-, and -, in turn; the degree of the precipitate formation were indicated by the signs of +++, ++,+-, and -, in turn; settings: antigen 1mg/ml; antiserum after removal of antibodies to carrier material
Description: as §1
According to the same manner as in Example 1, the dopamine specific antibody and γG-fraction thereof was obtained.
as §2

[5] = test system: antiserum to epinephrine-BSA; test: Ouchterlony method, specificity of antiserum to epinephrine-BSA; type: binding, rabbit; design: key: the degree of the precipitate formation were indicated by the signs of +++, ++,+-, and -, in turn; the degree of the precipitate formation were indicated by the signs of +++, ++,+-, and -, in turn; the degree of the precipitate formation were indicated by the signs of +++, ++,+-, and -, in turn; the degree of the precipitate formation were indicated by the signs of +++, ++,+-, and -, in turn; settings: antigen 1mg/ml; antiserum after removal of antibodies to carrier material
Description: as §1
Epinephrine specific antiserum was produced and γG-fraction was obtained by the same manner as in Example 1 using the phosphate buffered saline solution of the conjugate and complete Freund's adjuvant. […]

Row | Compound | relative binding (%) [1] | further results
1 | N[C@@H](Cc1ccc(O)c(O)c1)C(=O)O [L-dopa] | 90.7% | 
2 | CC(C)NC[C@H](O)c1ccc(O)c(O)c1 [L-isoproterenol] | 72.9% | 
3 | O=C(O)Cc1ccc(O)c(O)c1 [3,4-dihydroxyphenylacetic acid] | 83.8% | 
4 | CNC[C@H](O)c1ccc(O)c(O)c1 [L-epinephrine] | 0% | 
5 | norepinephrine-BSA: 20-30 moles of norepinephrine conjugated to one mole of BSA |  | degree of the precipitate formation, antiserum to L-dopa-BSA [2]: +-; degree of the precipitate formation, antiserum to norepinephrine [3]: ++; degree of the precipitate formation, antiserum to dopamine-BSA [4]: +-; degree of the precipitate formation, antiserum to epinephrine-BSA [5]: +-
6 | COc1cc(C(O)CN)ccc1O (racemic) [DL-normetanephrine] | 97.2% | 
7 | COc1cc(CC(=O)O)ccc1O [4-hydroxy-3-methoxyphenylacetic acid] | 91.7% | 
8 | NCCc1ccc(O)c(O)c1 [dopamine] | 88.0% | 
9 | NC[C@H](O)c1ccc(O)c(O)c1 [L-norepinephrine] | 54.8% | 
10 | CNCC(O)c1ccc(O)c(OC)c1 (racemic) [DL-methanephrine] | 81.7% | 
